{
  "source": "patent US20120064056A1",
  "about": "“DICHLORACETATE IN COMBINATION WITH CLINICALLY HIGH LEVELS OF CARDIOPROTECTIVE OR HEMODYNAMIC DRUGS” (THE GOVERNORS OF THE UNIVERSITY OF ALBERTA TEC Edmonton, priority 2002, published 2012)",
  "key": {"isolated rat hearts [1]": {"test_system": "isolated rat hearts", "experiment": "Isolated working rat heart, aerobic perfusion: cardiac function and efficiency", "parameters": "Cardiac Work (CO · PSP): unit not given beside the values", "experimental": "(§1) Rat hearts were cannulated for isolated working heart perfusions as described in “An imbalance between glycolysis and glucose oxidation is a possible explanation for the detrimental effects of high levels of fatty acids during aerobic reperfusion of ischemic hearts.”, (J Pharmacol Exp Ther. 264:135 (1993); herein incorporated by reference. In brief, male Sprague-Dawley rats (0.3-0.35 kg) were anesthetized with pentobarbital sodium (60 mg/kg IP) and hearts were quickly excised, the aorta was cannulated and a retrograde perfusion at 37° C. was initiated at a hydrostatic pressure of 60 mm Hg. Hearts were trimmed of excess tissue, and the pulmonary artery and the opening to the left atrium were then cannulated. After 15 min of Langendorff perfusion, hearts were switched to the working mode by clamping the aortic inflow line from the Langendorff reservoir and opening the left atrial inflow line. The perfusate was delivered from an oxygenator into the left atrium at a constant preload pressure of 11 mm Hg. Perfusate was ejected from spontaneously beating hearts into a compliance chamber (containing 1 ml of air) and into the aortic outflow line. The afterload was set at a hydrostatic pressure of 80 mm Hg. All working hearts were perfused with Krebs'-Henseleit solution containing calcium 2.5 mmol/L, glucose 5.5 mmol/L, 3% bovine serum albumin (Fraction V, Boehringer Mannheim), and with 1.2 mmol/L palmitate. Palmitate was bound to the albumin as described previously (Saddik M., et al. J Biol. Chem. 267:3825-3831 (1992)). The perfusate was recirculated, and pH was adjusted to 7.4 by bubbling with a mixture containing 95% O2 and 5% CO2. For the aerobic model hearts, all tested compounds were introduced into the heart 5 minutes into the working mode following Langendorff Perfusion.\nSpontaneously beating hearts were used in all perfusions. Heart rate and aortic pressure were measured with a Biopac Systems Inc. blood pressure transducer connected to the aortic outflow line. Cardiac output and aortic flow were measured with Transonic T206 ultrasonic flow probes in the preload and afterload lines, respectively. Coronary flow was calculated as the difference between cardiac output and aortic flow. The O2 contents of the perfusate entering and leaving the heart were measured using YSI™ micro oxygen electrodes placed in the preload and pulmonary arterial lines, respectively. Myocardial O2 consumption (MVO2) was calculated according to the Fick principle, using coronary flow rates and the arteriovenous difference in perfusate O2 concentration. Cardiac work was calculated as the product of systolic pressure and cardiac output. Cardiac efficiency was defined as a ratio of cardiac work to MVO2."}, "isolated rat hearts [2]": {"test_system": "isolated rat hearts", "experiment": "Isolated working rat heart, aerobic perfusion: glycolysis and glucose oxidation", "parameters": "glycolytic rates (glycolysis) / glucose oxidation rates: unit not given here", "details": "normal hearts, aerobic; FIG. 2, 4, 6, 8; control 3.430±0.604; DCA 2 mM, digoxin 3 nM, diltiazem 0.8 μM, dobutamine 1 μM, metoprolol 1 μM", "experimental": "as §1\nGlycolysis and glucose oxidation were measured simultaneously by perfusing hearts with [5-^3H/U-^14C] glucose (Liu H., et al. Am J Physiol. 270:H72-H80 (1996); Taegtmeyer Het al. Am J Cardiol. 80:3A-10A (1997)). The total myocardial ^3H2O production and ^14CO2 production were determined at 10 minute intervals for the entirety of the aerobic period, 60 minutes for normal hearts and 30 minutes for the global ischemia and low flow demand ischemia models. In the global ischemia model, the total myocardial ^3H2O and ^14CO2 production were determined at 20 minute intervals for the 60 minute reperfusion period. In the low flow demand ischemia model, the total myocardial ^3H2O and ^14CO2 production were determined at 10 minute intervals for the 30 minute reperfusion period. Glucose oxidation rates were determined by quantitative measurement of ^14CO2 production as described previously (Barbour R. L., et al. Biochemistr. 1923:6503-6062 (1984))."}, "[3]": {"test_system": "isolated rat hearts subjected to global ischemia", "experiment": "Isolated working rat heart, global no flow ischemia and reperfusion: cardiac function and efficiency", "experimental": "Hearts were trimmed of excess tissue, and the pulmonary artery and the opening to the left atrium were then cannulated. After 15 min of Langendorff perfusion, hearts were switched to the working mode by clamping the aortic inflow line from the Langendorff reservoir and opening the left atrial inflow line. The perfusate was delivered from an oxygenator into the left atrium at a constant preload pressure of 11 mm Hg. […] The afterload was set at a hydrostatic pressure of 80 mm Hg. […] Palmitate was bound to the albumin as described previously ([…]., et al. J Biol. Chem. 267:3825-3831 (1992)). […] For the aerobic model hearts, all tested compounds were introduced into the heart 5 minutes into the working mode following Langendorff Perfusion. Spontaneously beating hearts were used in all perfusions. Heart rate and aortic pressure were measured with a Biopac Systems Inc. blood pressure transducer connected to the aortic outflow line. Cardiac output and aortic flow were measured with Transonic […] ultrasonic flow probes in the preload and afterload lines, respectively. Coronary flow was calculated as the difference between cardiac output and aortic flow. […] Cardiac work was calculated as the product of systolic pressure and cardiac output. Cardiac efficiency was defined as a ratio of cardiac work to MVO2. […] All tested compounds were introduced into the perfusate five minutes prior to reperfusion."}, "[4]": {"test_system": "isolated rat hearts subjected to global ischemia", "experiment": "Isolated working rat heart, global ischemia and reperfusion: glycolysis and glucose oxidation", "details": "FIG. 10, FIG. 16, DCA 2 mM, digoxin 3 nM, metoprolol 1 μM", "experimental": "Hearts were trimmed of excess tissue, and the pulmonary artery and the opening to the left atrium were then cannulated. After 15 min of Langendorff perfusion, hearts were switched to the working mode by clamping the aortic inflow line from the Langendorff reservoir and opening the left atrial inflow line. The perfusate was delivered from an oxygenator into the left atrium at a constant preload pressure of 11 mm Hg. […] The afterload was set at a hydrostatic pressure of 80 mm Hg. […] Palmitate was bound to the albumin as described previously ([…]., et al. J Biol. Chem. 267:3825-3831 (1992)). […] For the aerobic model hearts, all tested compounds were introduced into the heart 5 minutes into the working mode following Langendorff Perfusion. […] All tested compounds were introduced into the perfusate five minutes prior to reperfusion. […] Am J Physiol. 270:[…]. Am J Cardiol. 80:3A-10A (1997)). […] In the global ischemia model, the total myocardial ^3H2O and ^14CO2 production were determined at 20 minute intervals for the 60 minute reperfusion period. […] L., et al. Biochemistr. 1923:6503-6062 (1984))."}, "[5]": {"details": "aerobically perfused, DCA 2 mM, diltiazem 0.8 μM, digoxin 3 nM, metoprolol 1 μM, dobutamine 1 μM"}, "[6]": {"details": "aerobically perfused, DCA 2 mM, diltiazem 0.8 μM, digoxin 3 nM, metoprolol 1 μM, dobutamine 1 μM, listed as digoxin"}, "[7]": {"details": "post-ischemic reperfusion, DCA 2 mM, digoxin 3 nM, metoprolol 1 μM"}},
  "data": [
    {"smiles": "C[C@H]1O[C@@H](O[C@H]2[C@@H](O)C[C@H](O[C@H]3[C@@H](O)C[C@H](O[C@H]4CC[C@@]5(C)[C@H](CC[C@@H]6[C@@H]5C[C@@H](O)[C@]5(C)[C@@H](C7=CC(=O)OC7)CC[C@]65O)C4)O[C@@H]3C)O[C@@H]2C)C[C@H](O)[C@@H]1O", "note": "[Digoxin, digoxin]", "values": [
      {"measurement": "Aortic Outflow", "setting": "isolated rat hearts [1]; [5]", "result": "31 ± 1", "unit": "mL/min"},
      {"measurement": "Cardiac Output", "setting": "isolated rat hearts [1]; [5]", "result": "52 ± 1", "unit": "mL/min"},
      {"measurement": "Cardiac Work (CO · PSP)", "setting": "isolated rat hearts [1]; [5]", "result": "67 ± 3"},
      {"measurement": "Coronary Flow", "setting": "isolated rat hearts [1]; [5]", "result": "21 ± 1", "unit": "mL/min"},
      {"measurement": "HR × PSP", "setting": "isolated rat hearts [1]; [5]", "result": "32 ± 1 beats · min^−1 · mmHg · 10^−2"},
      {"measurement": "Heart Rate", "setting": "isolated rat hearts [1]; [5]", "result": "258 ± 11", "unit": "beats · min^−1"},
      {"measurement": "O2 Consumption", "setting": "isolated rat hearts [1]; [5]", "result": "37 ± 3 μmolO2 · g dry wt^−1 · min^−1"},
      {"measurement": "Peak Systolic Pressure", "setting": "isolated rat hearts [1]; [5]", "result": "129 ± 4", "unit": "mmHg"},
      {"measurement": "Aortic Outflow", "setting": "isolated rat hearts [1]; [6]", "result": "31 ± 1", "unit": "mL/min"},
      {"measurement": "Cardiac Work (CO · PSP)", "setting": "isolated rat hearts [1]; [6]", "result": "67±3"},
      {"measurement": "effect on functional parameters shown in Table 1 (heart rate, peak systolic pressure, HR×PSP), in words", "setting": "isolated rat hearts [1]; normal hearts, aerobic, compared to control (DCA and dobutamine: compared to dobutamine alone)", "result": "no significant effect"},
      {"measurement": "glycolytic rates (glycolysis)", "setting": "isolated rat hearts [2]", "result": "5.651±1.298"},
      {"measurement": "Aortic Outflow", "setting": "[3]; [7]", "result": "14 ± 3", "unit": "mL/min"},
      {"measurement": "Cardiac Output", "setting": "[3]; [7]", "result": "34 ± 3", "unit": "mL/min"},
      {"measurement": "Coronary Flow", "setting": "[3]; [7]", "result": "20 ± 1", "unit": "mL/min"},
      {"measurement": "HR × PSP", "setting": "[3]; [7]", "result": "19 ± 2 beats · min^−1 · mmHg · 10^−2"},
      {"measurement": "Heart Rate", "setting": "[3]; [7]", "result": "207 ± 12", "unit": "beats · min^−1"},
      {"measurement": "Peak Systolic Pressure", "setting": "[3]; [7]", "result": "93 ± 6", "unit": "mmHg"},
      {"measurement": "recovery of cardiac function of previously ischemic hearts compared to control, in words", "setting": "[3]; reperfusion period, FIG. 11, FIG. 17", "result": "significantly improves the recovery"},
      {"measurement": "recovery of cardiac work of previously ischemic hearts compared to control, in words", "setting": "[3]; reperfusion period, FIG. 12, FIG. 18", "result": "significantly improve the recovery"},
      {"measurement": "recovery of oxygen consumption of previously ischemic hearts, in words", "setting": "[3]; reperfusion period, FIG. 13, FIG. 19", "result": "significantly improve the recovery"},
      {"measurement": "glycolytic rates as compared to control, in words", "setting": "[4]", "result": "neither DCA, digoxin, nor digoxin with DCA altered glycolytic rates"}
    ]}
  ]
}
